From patent publication US20050112128A1, “Inhibition of protein kinase c-mu (PKD) as a treatment for cardiac hypertrophy and heart failure” (Myogen, Inc. and Board of Regents, The University of Texas …, priority 2003, published 2005)
“Also recorded” adds a separate entry of the source.

Key:
[1] = system: nuclear export of GFP-HDAC5 in NRVMs; experiment: Quantitative HDAC5 nuclear export assay in NRVMs (Cellomics High Content Imaging System); format: cell-based, rat; settings: NRVMs, 2 hrs, inhibitor pre-treatment 30 min; for block of PE-induced nuclear export of HDAC5: PE 20 μM, KN93, wortmannin, staurosporine 1 mM, U1026, HA1077, Y-27632, DAG Kinase inhibitor II, SB216763, Bis I 10 mM, rapamycin 30 ng/ml, Gö6983 10 μM
[2] = system: HDAC5-bound PKD; format: biochemical, rat
[3] = biological target: T1, PKD (Homo sapiens, UniProt Q15139); settings: literature (Van Lint 2002; Gschwendt 1996; Haworth); cited from earlier work
T1 sequence (Q15139 1-912): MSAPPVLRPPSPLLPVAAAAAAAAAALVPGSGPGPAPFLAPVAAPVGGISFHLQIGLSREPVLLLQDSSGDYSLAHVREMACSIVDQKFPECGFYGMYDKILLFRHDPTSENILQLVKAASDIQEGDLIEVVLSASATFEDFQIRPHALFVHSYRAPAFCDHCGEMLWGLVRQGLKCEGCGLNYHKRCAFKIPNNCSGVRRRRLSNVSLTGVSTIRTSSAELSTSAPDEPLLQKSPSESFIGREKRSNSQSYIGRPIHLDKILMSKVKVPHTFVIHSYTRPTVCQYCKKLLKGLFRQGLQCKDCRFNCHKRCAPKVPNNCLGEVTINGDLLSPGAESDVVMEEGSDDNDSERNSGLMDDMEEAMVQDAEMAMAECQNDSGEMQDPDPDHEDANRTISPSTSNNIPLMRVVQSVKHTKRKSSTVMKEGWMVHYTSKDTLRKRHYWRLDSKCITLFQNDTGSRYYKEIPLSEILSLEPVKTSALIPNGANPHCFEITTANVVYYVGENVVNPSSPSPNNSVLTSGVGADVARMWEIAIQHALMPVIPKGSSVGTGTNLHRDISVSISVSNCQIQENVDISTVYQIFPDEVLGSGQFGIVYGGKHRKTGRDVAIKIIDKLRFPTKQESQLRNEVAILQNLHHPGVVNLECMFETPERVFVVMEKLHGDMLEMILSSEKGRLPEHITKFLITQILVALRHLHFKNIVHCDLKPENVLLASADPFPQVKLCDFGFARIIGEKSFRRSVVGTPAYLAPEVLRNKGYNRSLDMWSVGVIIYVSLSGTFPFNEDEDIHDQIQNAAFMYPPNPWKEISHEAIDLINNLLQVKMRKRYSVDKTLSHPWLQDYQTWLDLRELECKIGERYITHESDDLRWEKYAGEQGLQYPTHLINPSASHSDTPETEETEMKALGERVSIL

[4] = system: NRVMs; experiment: ANF immunostaining of cardiomyocytes (hypertrophy marker); format: cell-based, rat; settings: PE 20 μM or PMA 100 nM, 24 hrs
Experimental: FIGS. 3A-C—Inhibition of PKC-mediated cardiac hypertrophy by signalresistant HDAC5. NRVMs were cultured on 6-well dishes and infected with adenoviruses (MOI=10) encoding a LacZ control (Ad-LacZ) or FLAG-tagged HDAC5 harboring alanines in place of serines 259 and 498 (Ad-HDAC5 S/A), which are required for 14-3-3-mediated nuclear export. Cells were treated with PE (20 μM) or PMA (100 nM) for 24 hrs prior to analysis. FIG. 3A. Cells were fixed and sarcomeres visualized by indirect immunofluorescence with primary antibody specific for α-actinin and fluorescein-conjugated secondary antibody. FIG. 3B. ANF protein was detected by indirect immunofluorescence with anti-ANF primary antibody. FIG. 3C. Total RNA was harvested from cells and subjected to dot blot analysis with radiolabeled oligonucleotides specific for the indicated transcripts. RNA levels were quantified using a phosphorimager and are depicted as -fold change relative to amounts in unstimulated cells infected with Ad-LacZ. Values were normalized to GAPDH controls.
Cell culture and transfection assays. COS cells were maintained in DMEM with FBS (10%), L-glutamine (2 mM), and penicillin-streptomycin. Transfection of COS cells was performed with Fugene 6 (Roche Molecular Biochemicals) according to manufacturer's instructions. […]

[5] = system: association of 14-3-3 with HDAC5; experiment: Co-immunoprecipitation of FLAG-HDAC5 with endogenous 14-3-3 in COS cells; format: cell-based; settings: FLAG-HDAC5, PMA 30 min
Experimental: FIGS. 1A-D—PKC-dependent nuclear export of HDAC5. FIG. 1A. COS cells were cultured on 6-well dishes, transfected with a GFP-HDAC5 expression vector (1 μg) and stimulated with the indicated compounds, as described in Materials and Methods. Sixty minutes after addition of compounds, GFP-HDAC5 distribution was determined by fluorescence microscopy. […] FIG. 1B. COS cells were transfected with expression vectors encoding FLAG-tagged versions of either HDAC5 or an HDAC5 mutant harboring alanines in place of serines 259 and 498 (HDAC5 S259/498A) (1 μg each). Cells were stimulated with PMA for 60 min and HDAC5 distribution was determined by indirect immunofluorescence with anti-FLAG primary antibody and fluorecein-conjugated secondary antibody. HDAC5 259/498A is refractory to PMA stimulation. FIG. 1C. COS cells transfected with GFPHDAC5 encoding expression vector (1 μg) and stimulated with PMA for the indicated times. FIG. 1D. […] Association of FLAG-HDAC5 with endogenous 14-3-3 was detected by sequential immunoprecipitation and immunoblotting.
Co-immunoprecipitation assays. […] Associated PKD was detected by immunoblotting with rabbit polyclonal antibodies against either PKD-1, PKD-1 phosphorylated at serines 744 and 748, or PKD-1 phosphorylated at serine 916 (Cell Signaling Technologies) were employed at 1:1000 dilutions.

[6] = system: nuclear export of HDAC5 in COS cells; experiment: GFP-HDAC5 nuclear export in transfected COS cells (fluorescence microscopy); format: cell-based
Experimental: FIGS. 1A-D—PKC-dependent nuclear export of HDAC5. FIG. 1A. COS cells were cultured on 6-well dishes, transfected with a GFP-HDAC5 expression vector (1 μg) and stimulated with the indicated compounds, as described in Materials and Methods. Sixty minutes after addition of compounds, GFP-HDAC5 distribution was determined by fluorescence microscopy. […] FIG. 1B. COS cells were transfected with expression vectors encoding FLAG-tagged versions of either HDAC5 or an HDAC5 mutant harboring alanines in place of serines 259 and 498 (HDAC5 S259/498A) (1 μg each). Cells were stimulated with PMA for 60 min and HDAC5 distribution was determined by indirect immunofluorescence with anti-FLAG primary antibody and fluorecein-conjugated secondary antibody. HDAC5 259/498A is refractory to PMA stimulation. FIG. 1C. COS cells transfected with GFPHDAC5 encoding expression vector (1 μg) and stimulated with PMA for the indicated times. FIG. 1D. COS cells were transiently transfected with expression vectors encoding FLAG-tagged versions of HDAC5 or HDAC5 S259/498A (1 μg each). Cells were pretreated with the PKC inhibitor bisindolylmaleimide (Bis I; 10 μM) for 30 minutes and stimulated with PMA for 30 min, as indicated. Association of FLAG-HDAC5 with endogenous 14-3-3 was detected by sequential immunoprecipitation and immunoblotting.
Cell culture and transfection assays. COS cells were maintained in DMEM with FBS (10%), L-glutamine (2 mM), and penicillin-streptomycin. Transfection of COS cells was performed with Fugene 6 (Roche Molecular Biochemicals) according to manufacturer's instructions. For HDAC localization experiments, cells were treated 16-24 hours after transfection with PMA (100 nM), ionomycin […], 8-Br-cAMP (1 mM), pCPT-GMP (1 mM), or anisomycin (1 mM). Where noted, specific protein kinase inhibitors were added 30 min prior to the addition of any chemical stimulus. GFP-HDAC5 was visualized with standard fluorescent microscopic techniques. For indirect immunofluorescence of FLAG-HDAC5, COS cells were seeded on glass coverslips, transfected, and treated as above. After specific treatment, cells were fixed with buffered formalin (10%) and stained in PBS containing BSA (3%) and Nonidet P-40 (0.1%). Flag M2 antibody (Sigma) was used at a concentration of 1:200. Secondary fluoresceine-conjugated antibody (Vector Laboratories) was also used at a concentration of 1:200. Staining of cardiomyocytes for sarcomeres and atrial natriuretic factor (ANF) was performed by indirect immunofluorescence detection as above with antibodies directed against sarcomeric α-actinin (Sigma) and ANF (Peninsula Laboratories), respectively.

[7] = system: PKD; experiment: In vitro kinase assay with FLAG-HDAC5 immunoprecipitated from COS cells co-transfected with PKD; format: cell-based; settings: PMA 30 min
Source text: FIGS. 5A-E—Protein kinase D is an HDAC5 kinase. FIG. 5A. Amino acid sequences surrounding the regulatory phosphorylation sites of class II HDACs. NLS: nuclear localization signal; HDAC domain: deacetylase catalytic domain. The consensus target site for PKD is shown. Leucine at position −5 relative the phosphorylation site is required for optimal PKD-directed phosphorylation of other proteins. FIG. 5B. COS cells were transfected with an expression vector encoding GFP fused to HDAC5 harboring glycines in place of leucines 254 and 493 (L254/493G). Twenty-four hrs post-transfection, cells were left untreated (control) or stimulated with PMA for 30 minutes. FIG. 5C. […] HDAC5 localization was determined 24 hrs post-transfection. FIG. 5D. […] Twenty-four hrs post-transfection, cells were treated with PMA or vehicle control for 30 min. FLAG-HDAC5 was immunoprecipitated from whole-cell protein lysates and either incorporated into an in vitro kinase assay (IVK) or resolved by SDS-PAGE for western blot analysis to detect associated PKD, as indicated. Phosphorylated HDAC5 was resolved by SDS-PAGE and detected by autoradiography. FIG. 5E. Mammalian two-hybrid assay. […]

Structure (SMILES): CN(C)CCCn1cc(C2=C(c3c[nH]c4ccccc34)C(=O)NC2=O)c2ccccc21 [Bis I, bisindolylmaleimide I]
- block of ET-1-induced nuclear export of HDAC5 ([1]; ET-1 50 nM): had no effect
- block of FBS-induced nuclear export of HDAC5 ([1]; FBS 10%): had no effect
- block of PE-induced nuclear export of HDAC5 [1]: effective in blocking PE-dependent export of HDAC5; also recorded: inhibitory effect on PE-dependent HDAC5 nuclear export; also recorded: effective in blocking HDAC5 nuclear export
- block of HDAC5 phosphorylation, inhibitor given to cells before PMA ([2]; NRVMs pre-treated 30 min with 10 μM inhibitor (pre-Bis I)): Phosphorylation of HDAC5 was blocked
- sensitivity of PKD to the inhibitor [3]: not to Bis I or Gö6983

Structure (SMILES): CN(C)CCCn1cc(C2=C(c3c[nH]c4ccccc34)C(=O)NC2=O)c2ccccc21 [GF I]
- sensitivity of PKD to the inhibitor [3]: insensitive

Structure (SMILES): COc1ccc2c(c1)c(C1=C(c3c[nH]c4ccccc34)C(=O)NC1=O)cn2CCCN(C)C [Go6983]
- block of PE-induced nuclear export of HDAC5 [1]: inhibiting HDAC5 nuclear export in response to PE
- sensitivity of PKD to the inhibitor [3]: not to Bis I or Gö6983

Structure (SMILES): CCCCCCCCCCCCCC(=O)O[C@@H]1[C@@H](C)[C@@]2(O)[C@@H](C=C(CO)C[C@]3(O)C(=O)C(C)=C[C@@H]23)[C@@H]2C(C)(C)[C@]12OC(C)=O [PMA, Phorbol 12-myristate 13-acetate]
- HDAC5 phosphorylation after treatment of cells with PMA ([2]; NRVMs infected with Ad-FLAG-HDAC5, PMA 30 min): Increased HDAC5 phosphorylation
- ANF protein expression [4]: prominent perinuclear ANF protein expression
- association of 14-3-3 with HDAC5 [5]: enhanced
- stimulation of nuclear export of GFP-HDAC5 ([6]; COS cells transfected with GFP-HDAC5, 60 min after addition of compounds): complete relocalization of GFP-HDAC5 from the nucleus to the cytoplasm; also recorded: stimulated nuclear export of GFP-HDAC5; also recorded: more potent stimulator of export than ionomycin
- time to complete HDAC5 nuclear export following addition of PMA ([6]; COS cells, GFP-HDAC5): ≤ 30 min
- time to initiation of HDAC5 nuclear export following addition of PMA ([6]; COS cells, GFP-HDAC5): ≤ 15 min
- HDAC5 phosphorylation after PMA, activated PKD S/E co-transfected ([7]; FLAG-HDAC5 + PKD S/E): enhanced phosphorylation of HDAC5
- HDAC5 phosphorylation after PMA, wild-type PKD co-transfected ([7]; FLAG-HDAC5 + PKD): increased the degree of HDAC5 phosphorylation

Structure (SMILES): Cn1cc(C2=C(c3cn(CCCSC(=N)N)c4ccccc34)C(=O)NC2=O)c2ccccc21 [Ro 31-8220]
- sensitivity of PKD to the inhibitor [3]: insensitive
